Results published in US5272143A, “6-oxoazepinoindole compounds, and pharmaceutical compositions containing them” (Kali-Chemie Pharma GmbH, priority 1991, dated 1993).

Key:
Mouse = test system: Mouse; parameters: species or system Male mice; conditions: in vivo, po, 4320 min
Experimental: 1. Determination of the minimum toxic dose.
Male mice of 20-25 g weight are administered maximum doses of 300 mg/kg of the test substance p.o. The animals were carefully observed for 3 hours for symptoms of toxicity. Over a period of 72 hours after administration, all symptoms and cases of death are additionally recorded. Concomitant symptoms are likewise observed and recorded. If death or strong toxic symptoms are observed, further mice are administered increasingly lower doses until toxic symptoms no longer occur. The lowest dose which causes death or strong toxic symptoms is given in the following Table A as the minimum toxic dose. The example numbers given in Table A relate to the subsequent preparation examples.

stomach motility = test: Determination of effect on stomach motility in anaesthetised rats; assay type: in vivo, rats of the SIV 50 strain; conditions: rat, 100 μmole/kg i.p.; for change in vivo at 100 µmol/kg: ip, read-out: Maximum Amplitude Increase (increase in % of control amplitude)
Experimental: 2. Determination of effect on stomach motility in anaesthetised rats.
For the tests, groups of 5-6 fasting rats of the SIV 50 strain having a body weight of 220-290 g were used in each test which had been anaesthetised with a ketamine/xylazine mixture. The animals received an initial dose of 1 ml/kg of a solution of 50 mg/ml of ketamine and 10 mg/ml of xylazine administered i.p., and the anaesthetic level was maintained by a continuous intraperitoneal infusion of the same solution at an infusion rate of 1 ml/kg/h. The animals were tracheotomised and laparotomised. After applying a pylorus ligature, a stomach tube was inserted into the stomach and connected at the other end by means of a three-way tap to a calibrated pressure transducer (Statham Element P 23 ID). A corresponding tube was inserted rectally 8-9 cm into the colon and likewise connected in the same manner to a calibrated pressure transducer of the same type. The stomachs of the animals were then filled with 2 ml of water via the tube. After a stabilisation phase of 40 min, the pressure variations in the stomach and colon were measured over a test period of 2 hours and 20 minutes, and the amplitudes produced by the phasic gastric motility were recorded by means of a Watanabe multirecorder (MC 6621). The geometric mean values of the amplitudes during the first 20 min were determined for the individual animals and used as control amplitude values. After the first 20 min, the test substances were administered i.p. The maximum increase in amplitude (=mean value of the 20 minute period in which the highest increase in amplitude occurs) caused by the test substances was determined in % increase of the control amplitude values determined before administration of the test substances, and the mean value for the animal group is given in the following Table A. In addition, the maximum increase in the mean gastric tone caused by the test substances during the test period compared with the mean gastric tone existing before administration of the test substances was recorded. This increase in gastric tone is given in Table A in cm of H2 O (mean value of the animal group). In the colon, the test substances cause amplitude damping.

Structure (SMILES) | Minimum Toxic Dose (Mouse) | change in vivo at 100 µmol/kg (stomach motility) | Gastric Tone Increase (stomach motility)
O=C1NCC(CNCc2ccccc2)c2c[nH]c3cccc1c23 (stereo not shown) [Example 2, 3-Benzylaminomethyl-3,4,5,6-tetrahydro-6-oxo-1H-azepino[5,4,3-cd]indole] | > 300 mg/kg | 239% | 
CCNCC1CNC(=O)c2cccc3[nH]cc1c23 (stereo not shown) [Example 5a, 3-Ethylaminomethyl-3,4,5,6-tetrahydro-6-oxo-1H-azepino[5,4,3-cd]indole] | > 300 mg/kg |  | 9.5 cm H2O
CCN(CC)CC1CNC(=O)c2cccc3[nH]cc1c23 (stereo not shown) [Example 5b, 3-Diethylaminomethyl-3,4,5,6-tetrahydro-6-oxo-1H-azepino[5,4,3-cd]indole] | > 300 mg/kg | 449% | 3.8 cm H2O
CC(C)NCC1CNC(=O)c2cccc3[nH]cc1c23 (stereo not shown) [Example 6, 3-Isopropylaminomethyl-3,4,5,6-tetrahydro-6-oxo-1H-azepino[5,4,3-cd]indole] | > 300 mg/kg | 609% | 15.4 cm H2O
NCCC1Cc2c[nH]c3cccc(c23)C(=O)N1 (stereo not shown) [Example 8, 4-(2-Aminoethyl)-3,4,5,6-tetrahydro-6-oxo-1H-azepino[5,4,3-cd]indole] | > 300 mg/kg | 569% | 
NCC1CNC(=O)c2cccc3c2c1cn3Cc1ccccc1 (stereo not shown) [Example 10, 1-Benzyl-3-aminomethyl-3,4,5,6-tetrahydro-6-oxo-1H-azepino[5,4,3-cd]indole] | > 300 mg/kg | 663% | 10.5 cm H2O
NCC1CNC(=O)c2cccc3c2c1cn3CCCc1ccccc1 (stereo not shown) [Example 13, 3-Aminomethyl-1-(3-phenylpropyl)-3,4,5,6-tetrahydro-6-oxo-1H-azepino[5,4,3-cd]indole] | > 300 mg/kg | 332% | 7.2 cm H2O
O=C1NCC(CN2CCCCC2)c2c[nH]c3cccc1c23 (stereo not shown) [Example 14, 3-(1-Piperidinylmethyl)-3,4,5,6-tetrahydro-6-oxo-1H-azepino[5,4,3-cd]indole] | > 300 mg/kg |  | 3.0 cm H2O
CN(C)C=NCC1CNC(=O)c2cccc3[nH]cc1c23 (stereo not shown) [Example 15, 3-(Dimethylaminomethylideneaminomethyl)-3,4,5,6-tetrahydro-6-oxo-1H-azepino[5,4,3-cd]indole] | > 300 mg/kg | 308% | 3.1 cm H2O
O=C1NC(CN2CCN(c3ccccc3)CC2)Cc2c[nH]c3cccc1c23 (stereo not shown) [Example 17, 4-(4-Phenylpiperazin-1-ylmethyl)-3,4,5,6-tetrahydro-6-oxo-1H-azepino[5,4,3-cd]indole] | > 300 mg/kg | 293% | 
Cc1ccc(CNCC2CNC(=O)c3cccc4[nH]cc2c34)cc1 (stereo not shown) [Example 24] | > 300 mg/kg | 195% | 
CN1CCN(CC2Cc3c[nH]c4cccc(c34)C(=O)N2)CC1 (stereo not shown) [Example 25] | 300 mg/kg | 206% | 
O=C1NC(CNC2CCCCC2)Cc2c[nH]c3cccc1c23 (stereo not shown) [Example 28] | > 300 mg/kg | 17% | 0.5 cm H2O
O=C1NC(CN2CCOCC2)Cc2c[nH]c3cccc1c23 (stereo not shown) [Example 29] | > 300 mg/kg | 154% | 
CC(C)(C)NCC1Cc2c[nH]c3cccc(c23)C(=O)N1 (stereo not shown) [Example 31] | > 300 mg/kg | 928% | 
COc1ccc(CCNCC2CNC(=O)c3cccc4[nH]cc2c34)cc1OC (stereo not shown) [Example 32] | > 300 mg/kg | 922% | 
CC(C)n1cc2c3c(cccc31)C(=O)NCC2CN (stereo not shown) [Example 34] |  | 467% | 
O=C1NCC(CNCC2CC2)c2c[nH]c3cccc1c23 (stereo not shown) [Example 47] |  |  | 6.7 cm H2O
